In patent US20220267288A1, “CARDIAC THERAPEUTIC” (priority 2019, published 2022):

Tests used:
H9c2 cells = test: Cytotoxicity (dead-cell protease, Mitochondrial ToxGlo) in differentiated H9c2 cells; type: cell-based
Experimental: (§1) H9c2 cell line was purchased from American Tissue Type Collection (ATCC) (Manassas, Va.). The cells were cultured in low-glucose DMEM growth media (Cat No: 31600, Thermo Fisher Scientific, Waltham, Mass.) supplemented with 1.5 g/L sodium bicarbonate, 25 mM HEPES, 10% fetal bovine serum (FBS) (GE Healthcare, Singapore), 100 units/mL penicillin, 100 μg/mL streptomycin and 250 ng/mL amphotericin B in 75-cm^2 tissue-culture flasks at 37° C. in a humidified atmosphere of 5% CO2. Cells were fed every 2-3 days and sub-cultured once 70-80% confluency was achieved to prevent the loss of differentiation potential. For differentiation, H9c2 cells were seeded at a density of 100,000 cells/well in 12-well plates. The cells were maintained for 1 day in low-glucose high-serum growth media to allow for cell attachment. Subsequently, cells were differentiated using 1 μM ATRA.
(§2) H9c2 cells were seeded in a white chimney plate and differentiated. The media was changed to DMEM with 10 mM galactose, 2 mM glutamine (6 mM final), 5 mM HEPES, 1 mM sodium pyruvate, 100 U/mL penicillin, 100 μg/mL streptomycin, 0.25 μg/mL amphotericin B, 1% FBS, 1× insulin-transferrin-selenium and 1 μM ATRA for 48 h to overcome the Crabtree effect. […] The cytotoxicity and intracellular ATP content were measured concurrently using Mitochondrial ToxGlo™ kit (Promega, Madison, Wis.) using manufacturer's protocol. Mitochondrial ToxGlo™ assay measures the cell viability using fluorogenic peptide bis-alanine-alanine-phenylalanine-R110 (bis-AAF-R110). Bis-AAF-R110 is a selective peptide that measures protease activity in dead cells since it is impermeable to live cells. Here, the fluorescence derived from metabolized bis-AAF-R110 was measured at different concentrations of the test compounds and compared to control. As the concentration of cytotoxic compound increases, the number of dead cells increases, leading to a higher fluorescence signal. ATP is measured by adding the ATP Detection Reagent, resulting in cell lysis and generation of a luminescent signal proportional to the amount of ATP present. […]

[1] = as above; type: cell-based; settings: rat, differentiated H9c2 cells, 6 h exposure, read-out: cytotoxicity EC50 (bis-AAF-R110 dead-cell protease fluorescence)
Experimental: as §1, §2

CYP3A4 = molecular target: T1, CYP3A4 (Homo sapiens, UniProt P08684); settings: literature value, similar experimental set-up; cited from earlier work
T1 construct: purchased BD Gentest (Woburn, Mass.)
T1 sequence (P08684 whole entry): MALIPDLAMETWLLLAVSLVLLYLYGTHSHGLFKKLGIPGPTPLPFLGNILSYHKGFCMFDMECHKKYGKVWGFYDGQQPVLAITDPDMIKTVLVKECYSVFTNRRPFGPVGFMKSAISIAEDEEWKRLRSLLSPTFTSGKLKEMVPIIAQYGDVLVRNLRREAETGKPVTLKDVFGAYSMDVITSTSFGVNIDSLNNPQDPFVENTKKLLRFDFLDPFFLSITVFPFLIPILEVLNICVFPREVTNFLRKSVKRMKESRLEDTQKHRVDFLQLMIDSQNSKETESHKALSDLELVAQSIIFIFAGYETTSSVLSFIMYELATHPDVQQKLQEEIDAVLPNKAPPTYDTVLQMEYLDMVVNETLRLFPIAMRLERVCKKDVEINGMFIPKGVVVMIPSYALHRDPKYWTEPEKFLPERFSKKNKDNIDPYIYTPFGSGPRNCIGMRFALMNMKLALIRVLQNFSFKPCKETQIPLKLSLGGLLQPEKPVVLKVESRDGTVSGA

[2] = system: chronic atrioventricular block dog; test: Paroxysmal atrial fibrillation model in chronic atrioventricular block dogs; type: in vivo
Experimental: Experiments were performed using female beagle dogs weighing approximately 10 kg (n=4). Animals were obtained through Kitayama Labes Co., Ltd. (Nagano, Japan). All experiments were approved by the Toho University Animal Care and User Committee (No. 19-52-395) and performed according to the Guideline for the Care and Use of Laboratory Animals of Toho University.
The catheter ablation technique of atrioventricular node was employed as previously described^11,14. The dogs were anesthetized with pentobarbital sodium (30 mg/kg, i.v.). After intubation with a cuffed endotracheal tube, the respiration was controlled with room air using a volume-limited ventilator (SN-480-3; Shinano Manufacturing Co., Ltd., Tokyo, Japan). Tidal volume and respiratory rate were set at 20 mL/kg and 15 breaths/min, respectively. Heparin calcium (100 IU/kg, i.v.) was administered to prevent blood clotting. The surface lead II electrocardiogram was continuously monitored. A quad-polar electrodes catheter with a large tip of 4 mm (D7-DL-252; Cordis-Webster Inc., CA, USA) was inserted through the catheter sheath (FAST-CATH™ 406119; St. Jude Medical Daig Division, Inc., Minnetonka, Minn., USA) placed at the right femoral vein and positioned across the tricuspid valve under the guide of bipolar electrogram from the distal electrode pair. The optimal site for the atrioventricular node ablation; namely, the compact atrioventricular node, was determined on the basis of the intra-cardiac electrogram, of which a very small His deflection was recorded and atrial/ventricular voltage ratio was >2. The power source for the atrioventricular nodal ablation was obtained from an electrosurgical generator (MS-1500; Senko Medical Instrument Manufacturing Co., Ltd., Tokyo, Japan), which delivers continuous unmodulated radiofrequency energy at a frequency of 500 kHz. After determining the proper location, the radiofrequency energy of 20 W was delivered for 10 s from the tip electrode to an indifferent patch electrode positioned on the animal's back, which was continued then for 30 s if junctional ectopic complexes were induced. The endpoint of this procedure was the development of the complete atrioventricular block with an onset of stable idioventricular escaped rhythm. All surgical procedures described above were performed under the sterile condition.
The paroxysmal atrial fibrillation model was prepared as previously reported^12,13. More than 3 months after the induction of atrioventricular block, the dogs (n=4) were anesthetized with pentobarbital sodium (30 mg/kg, i.v.). After intubation with a cuffed endotracheal tube, the dogs were artificially ventilated with 0.5-1.5% isoflurane in oxygen using a volume-limited ventilator (SN-480-3; Shinano Manufacturing Co., Ltd.). Tidal volume and respiratory rate were set at 20 mL/kg and 15 breaths/min, respectively. The surface lead II electrocardiogram was obtained from the limb electrodes. […] An indwelling needle (Surflo® 18G; Terumo Corporation, Tokyo, Japan) was placed at the right femoral artery, through which the arterial blood pressure was measured.
Three sets of standard 6-French quad-polar electrodes catheter (Cordis-Webster Inc.) were used. First one was positioned at the high right atrium through the right femoral vein to electrically pace the sinus nodal area and to simultaneously obtain the right atrial electrogram. Second one was positioned in the esophagus via os to record to the left atrial electrogram. Third one was positioned at the inter-atrial septum of the right atrium through the left femoral vein to electrically induce paroxysmal atrial fibrillation as described below. The optimal sites of each catheter were determined by the temporal relationship between the bipolar atrial electrograms from the distal electrodes pair and P wave of the electrocardiogram. […]

[3] = high dose 3 mg/kg i.v., for 10-60 min

CCCCc1oc2ccc(NS(C)(=O)=O)cc2c1C(=O)c1ccc(OCCCN(CCCC)CCCC)cc1.Cl [Dronedarone]
EC50 (H9c2 cells; 6 h exposure, read-out: cytotoxicity EC50 (bis-AAF-R110 dead-cell protease fluorescence)): 1.2 µM | increase in the protease activity (cell death) (H9c2 cells; no pre-treatment with EETs): 150-200% | EC50 at 6 h [1]: 1.21 µM | CLint CYP3A4 reported by Hong et al (CYP3A4): 6.442 µL/min/pmol

Cl.[2H]c1c(NS(C)(=O)=O)c([2H])c2c(C(=O)c3ccc(OCCCN(CCCC)CCCC)cc3)c(CCCC)oc2c1[2H] [Poyendarone, Methanesulfonamide, N-(2-butyl-3-(4-(3-(dibutylamino)propoxy)benzoyl)-1-benzo(4,6,7-d3)-furan-5-yl)hydrochloride]
lethal ventricular arrhythmias or hemodynamic collapse ([2]; 0.3 and 3 mg/kg i.v., experimental period): No animals exerted any lethal ventricular arrhythmias or hemodynamic collapse leading to their death | duration of atrial fibrillation after burst pacing (typical tracing) ([2]; 20 min after 3 mg/kg, pre-drug control 6.9 s): 1.8 s | effect on AERP(CL200) ([2]; high dose 3 mg/kg i.v.): no significant change | effect on VERP(CL400) ([2]; high dose 3 mg/kg i.v.): no significant change | effect on cycle length of atrial fibrillation ([2]; high dose 3 mg/kg i.v.): tended to be prolonged, which did not achieve statistical significance | effect on mean blood pressure ([2]; high dose 3 mg/kg i.v.): hardly altered | effect on sinoatrial rate ([2]; high dose 3 mg/kg i.v.): hardly altered | effect on IACT(CL300) ([2]; high dose 3 mg/kg i.v., at 10 min): prolonged | effect on IACT(CL400) ([2]; high dose 3 mg/kg i.v., at 10 min and for 30-60 min): prolonged | effect on AERP(CL300) [2, 3]: prolonged | effect on AERP(CL400) [2, 3]: prolonged | effect on IACT(CL200) [2, 3]: prolonged | effect on duration of atrial fibrillation [2, 3]: shortened | effect on AERP(CL200) ([2]; low dose 0.3 mg/kg i.v.): no significant change | effect on AERP(CL300) ([2]; low dose 0.3 mg/kg i.v.): no significant change | effect on IACT(CL200) ([2]; low dose 0.3 mg/kg i.v.): did not alter | effect on IACT(CL300) ([2]; low dose 0.3 mg/kg i.v.): did not alter | effect on IACT(CL400) ([2]; low dose 0.3 mg/kg i.v.): did not alter | effect on VERP(CL400) ([2]; low dose 0.3 mg/kg i.v.): no significant change | effect on cycle length of atrial fibrillation ([2]; low dose 0.3 mg/kg i.v.): did not alter | effect on duration of atrial fibrillation ([2]; low dose 0.3 mg/kg i.v.): did not alter | effect on mean blood pressure ([2]; low dose 0.3 mg/kg i.v.): hardly altered | effect on sinoatrial rate ([2]; low dose 0.3 mg/kg i.v.): hardly altered | effect on AERP(CL400) ([2]; low dose 0.3 mg/kg i.v., at 20 min): prolonged
